Test results published in ChEMBL document CHEMBL5236600, “Identification of a Novel Potent CYP4Z1 Inhibitor Attenuating the Stemness of Breast Cancer Cells through Lead Optimization” (J Med Chem, 2022).

Experiments:
Cytochrome P450 4Z1 [1] = molecular target: T1, Cytochrome P450 4Z1 (Homo sapiens, UniProt Q86W10); assay: Inhibition of CYP4Z1 in human HEK293T cells using Luciferin-BE as substrate at 1 uM incubated for 30 mins in presence of NADPH by luminescence based assay relative to control; format: ADME, cell-based; details: HEK-293T, 0.5 h
T1 sequence (Q86W10 whole entry): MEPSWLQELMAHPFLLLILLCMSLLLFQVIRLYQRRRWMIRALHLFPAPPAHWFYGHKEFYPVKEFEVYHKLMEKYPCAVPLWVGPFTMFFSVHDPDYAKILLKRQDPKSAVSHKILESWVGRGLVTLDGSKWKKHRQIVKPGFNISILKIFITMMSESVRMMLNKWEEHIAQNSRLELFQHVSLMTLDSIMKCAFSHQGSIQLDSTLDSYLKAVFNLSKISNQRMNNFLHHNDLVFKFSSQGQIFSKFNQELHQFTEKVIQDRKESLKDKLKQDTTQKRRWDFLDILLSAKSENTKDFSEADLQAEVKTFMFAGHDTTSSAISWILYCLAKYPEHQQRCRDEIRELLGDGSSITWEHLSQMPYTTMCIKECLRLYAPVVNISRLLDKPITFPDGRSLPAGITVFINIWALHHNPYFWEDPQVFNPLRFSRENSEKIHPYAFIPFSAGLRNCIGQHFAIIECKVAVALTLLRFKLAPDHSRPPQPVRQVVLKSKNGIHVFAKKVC

Cytochrome P450 4Z1 [2] = molecular target: T1, Cytochrome P450 4Z1; assay: Inhibition of CYP4Z1 in human HEK293T cells using Luciferin-BE as substrate at 10 uM incubated for 30 mins in presence of NADPH by luminescence based assay relative to control; format: ADME, cell-based; details: HEK-293T, 0.5 h

| inhibition at 1 µM (Cytochrome P450 4Z1 [1]) | inhibition at 10 µM (Cytochrome P450 4Z1 [2]) | SMILES |
| --- | --- | --- |
| 33.6% | 72.8% | CCc1ccc(N/C=N/O)cc1 |
| 54.2% | 84.3% | CCCCc1ccc(N/C=N/O)cc1 |
